In patent US8962558B2, “Methods for reducing GnRH-positive tumor cell proliferation using the GnRH antagonist IN3” (priority 1997, dated 2015):

Experiments:
[1] = test system: BLM cells; assay: In vivo study in nude mice inoculated with malignant melanoma, low dosage experiment; settings: 100 μg per mouse daily, 2-3 weeks
Procedure: Sixteen male nude mice were injected s.c. in the flank with 1×10^6 (0.2 ml/mouse) BLM cells. The treatment started the same day: Eight mice received daily 100 μg […]® per mouse in 200 μl saline. Eight control mice were treated with 200 μl saline each. The treatment lasted 2-3 weeks. Every 2 to 3 days the volume of the tumors was determined by caliper.

[2] = test system: Glioblastoma multiforme; assay: Phase II study with ZOLADEX (Example 7); format: in vivo, human
Procedure: Patients with histologically confirmed Glioblastoma multiforme following a first operation were treated (also randomized controlled) with ZOLADEX® in the manner described by Jonat et al., 1995, European J. Cancer, 137-142. Following radiotherapy, the patients are assigned to two different groups. One group received treatment, for example with ZOLADEX® and one group without ZOLADEX® (or with Cetrorelix® and without Cetrorelix®, or with ANTIDE® and without ANTIDE®, or with […]® or without […]® etc.). The resulting clinical effects are similar to metastasized […] mammary carcinoma. The percentage of patients showing an actual significant therapy effect is evaluated according to the criteria of tumor volume, recidivation-free survival, overall survival following initial application of the compound, and Karnofsky and Spitzer indices in a clinical neurological examination and under consideration of the other examination criteria (Sposto, R., et al., 1989, J. Neurooncology, 7, 165-177, and Kirby, S., et al., 1995, J. Natl. Cancer Institute, 87, 1884-1888, 1995).

[3] = test system: BLM melanoma tumor cell line implant; format: in vivo, nude mice
Procedure: In one series of experiments, nude mice bearing human melanoma tumor cell line xenotransplants were treated for two weeks with 100 μg of Goserelin daily, while a second group of mice was administered 200 μg of Goserelin daily, with an additional daily supplement given by subcutaneous injection. […] The in vivo tumor growth has three predominant characteristics: mitotic activity, dedifferentiation, and infiltration of cells into the surrounding tissue and vessels.
Results for this study are depicted in FIG. 21. These observations are in line with the previously shown inhibition of Matrigel invasion of BLM cells under Zoladex treatment, as described above. A histological investigation of the tumor before and after treatment has confirmed this finding (results not shown).
In another set of experiments, ZOLADEX® treatment was administered to mice for a period of four to eight weeks, with an additional GnRH antagonist treatment to avoid any tumor proliferation (i.e. flare up) following cessation of the therapy and to avoid tumor cell receptor depletion.

[4] = test system: Me15392 melanoma cells; assay: Cell proliferation studies, Me15392 cells; format: cell-based, human; settings: 10^−11-10^−6 M, 7 days
Procedure: The antiproliferative action of GnRH agonists on melanoma cells is further investigated in another melanoma cell line (Me15392). These experiments have been carried out as described above for BLM cells (same GnRH agonist, same doses of the drug and same length of treatment, etc.). All proliferation experiments were performed in four to six replicates. The data obtained from three independent experiments were analyzed according to the Dunnett's test after one-way ANOVA.

[5] = test system: BLM melanoma cells; assay: Cell proliferation studies, BLM cells; format: cell-based, human; settings: 10^−11-10^−6 M, daily for 7 days
Procedure: BLM cells were plated at a density of 700 cells/cm^2 in […] in culture medium. Cells were allowed to attach and start growing for 3 days; the seeding media were then changed. Cells were treated daily (the drug was added to the medium every day), for 7 days, with LHRH-A (10^−11-10^−6 M); the medium was changed at every two days. At the end of the treatment, cells were collected and counted by hemocytometer.
To confirm the specificity of the action of LHRH-A on melanoma cell proliferation, it was investigated whether the effects of the LHRH agonist might be counteracted by a potent GnRH antagonist. A preliminary experiment was performed to select the dose of the GnRH antagonist (ANT) to be used. To this purpose, BLM cells were treated daily with ANT at different doses (10^−11-10^−6 M).) Cells were harvested and counted after 7 days of treatment. Subsequently, BLM cells were treated daily, for 7 days, with LHRH-A (10^−7 M), either in the absence or in the presence of ANT (10^−7 M). Cells were counted 7 days after the beginning of the treatment.
All proliferation experiments were performed in four to six replicates. The data obtained from three independent experiments were analyzed according to the Dunnett's test after one-way ANOVA.

CC(C)C[C@H](NC(=O)[C@@H](COC(C)(C)C)NC(=O)[C@H](Cc1ccc(O)cc1)NC(=O)[C@H](CO)NC(=O)[C@H](Cc1c[nH]c2ccccc12)NC(=O)[C@H](Cc1cnc[nH]1)NC(=O)[C@@H]1CCC(=O)N1)C(=O)N[C@@H](CCCNC(=N)N)C(=O)N1CCC[C@H]1C(=O)NNC(N)=O [ZOLADEX®, D-Ser(tBu)^6Aza-Gly-LHRH]
tumors smaller with respect to the controls [1]: 15-20%
reduction in tumor volume vs untreated control group ([2]; MRT and/or CAT scans): significantly higher reduction in tumor volume
overall survival following initial application vs untreated control group ([2]; in vivo): significantly longer overall survival
recidivation-free survival vs untreated control group ([2]; in vivo): significantly longer recidivation-free survival
reduction in tumor weight ([3]; 100 μg or 200 μg daily, after two weeks, both groups): 50%
persistence of tumor growth inhibition despite cessation of treatment ([3]; 100 μg/day or 200 μg/day): ~4 weeks
growth inhibitory effect compared with 100 μg/day ([3]; 200 μg/day): even more powerful growth inhibitory effect
tumor growth once treatment has stopped ([3]; after two weeks (16 days) of treatment): rebound of tumor growth (flare up) is observed
inhibition of BLM cell growth ([3]; mouse, in vivo): about 50%
cell proliferation [4]: significant and dose-dependent inhibition of cell proliferation
cell proliferation [5]: significant and dose-dependent inhibition of cell proliferation
